The term melting point denotes the temperature, or range, at which the solid turns liquid.

Results on 16 molecules are retold here after patent US9296690B2, “Method for inhibiting differentiation of osteoclast and pharmaceutical composition comprising thereof” (Metacine, Inc., priority 2012, dated 2016).

Series [1] concerns the target T1, human recombinant sRNAK receptor (Homo sapiens, UniProt Q9Y6Q6).
T1 construct: human recombinant sRNAK receptor molecule; purchased PeproTech
T1 sequence (Q9Y6Q6 30-212 limits assumed): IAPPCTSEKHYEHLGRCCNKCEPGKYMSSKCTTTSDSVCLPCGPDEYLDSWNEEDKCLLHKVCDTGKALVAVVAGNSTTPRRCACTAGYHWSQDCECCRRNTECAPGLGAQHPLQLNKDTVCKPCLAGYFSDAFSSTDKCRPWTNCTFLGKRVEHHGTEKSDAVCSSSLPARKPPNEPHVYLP
As to the kind of experiment: Inhibition activity of RANK receptor binding (protein chip, sRANK ligand). Conditions: n=6. How it is done: After the human recombinant sRNAK receptor molecule (100 μg/ml, PeproTech) was fixed to the protein chip (PeproTech), human recombinant sRANK ligand (10 μg/ml, PeproTech) was treated and incubated for 1 hour. OPG molecule was used as a positive control, and the compound and OPG are simultaneously treated. A comparative analysis was conducted to compare the binding inhibition effect of the compound using OPG as a control. Mouse anti-human sRANK ligand monoclonal antibody coupled with Cy5-fluorescent (1.0 μg/ml, PeproTech) was treated for 30 minutes, and scanning the strength of luminescence by using image analysis scanner and analyzed to the GraphPad Prism 4 software. Out of the above stated compounds, compound 4e and ZA were comparatively analyzed. […] That of the compound 4e was 46.70%.

In the next series the target is T2, human integrin αyβ3 (Homo sapiens, UniProt P05106+P06756).
T2 construct: purchased Milipore
As to the kind of experiment: Inhibition activity of osteopontin-integrin binding (protein chip). Conditions: n=6. On the procedure:
After the human integrin αyβ3 (100 μg/ml, Milipore) was fixed to the protein chip (PeproTech), the human recombinant OPN (40 μg/ml, PeproTech) molecule coupled with Cy5-fluorescent was reacted for 1 hour. Echistatin molecule (40 μg/ml, Sigma-Aldrich) was used as a positive control. The samples were simultaneously treated to conduct a comparative analysis for the binding inhibitory effect thereof. Finally, the strength of luminescence is scanned by using image analysis scanner and analyzed to the GraphPad Prism 4 software. […] The binding inhibitory activity of compound 4e of the invention was about 3 times higher than that of ZA (n=6)(FIG. 5).

The next series relates to RAW 264.7 cell. In words: Inhibition effect on osteoclast differentiation (RANKL-stimulated RAW 264.7 cells, TRAP stain, osteoclast count). The format is cell-based, mouse. The conditions noted are these: RAW 264.7 + RANKL; for osteoclast differentiation degree (number of cells differentiated to osteoclasts): 7 days, osteoclasts with more than 4 nuclei, two values per concentration, control 51.5. How it is done:
RAW 264.7 cell, a mouse macrophage/monocyte cell line which can be differentiated in various forms depends on its surrounding environments and stimuli, is differentiated to multinucleated osteoclast by the stimulus of RANKL (100 ng/ml). Inhibition effect of each compound on osteoclast differentiation was analyzed by comparing the degree of osteoclast differentiation when RAW 264.7 cell was treated with RANKL and the subject each compound simultaneously.
Inhibition activities of osteoclast differentiation in respect of compounds 4a, 4b, 4c, 4d, 4e, 4f, 4 g, 4 h, 4i, 4j, 4k, 4l, 4m, 4n, 4o, 7a, 7b, 7c, and 7d were tested. Macrophage/monocyte RAW 264.7 cell was used as a cell and 1.5×10^3 cells were seeded in a 96 well plate. The synthesized compound and zoledronic acid as a control material were dissolved in 10% DMSO aqueous solution and treated to cells according to each concentration […].
After pre-treating each compound for 6 hours and then, treating RANKL, the incubation was carried out for 7 days in a 5% CO2 incubator. To observe osteoclasts well, they were stained by TRAP (tartrate resistance acid phosphatase) stain method. The number of cells differentiated to osteoclasts was counted and then, a comparative analysis was conducted for the degree of each compound's osteoclast differentiation.
Only the osteoclasts containing nucleus number more than 4 were only counted as effective analysis targets in both control and experiment groups (See FIGS. 1 and 2).

For the next series, the system named is NF-kappa B. In words: Inhibition of NF-kappa B in RAW264.7 cells. The format is cell-based, mouse. The conditions noted are these: 10 μM, 12 hours, then ALLN and RANKL 30 minutes. An excerpt:
It is confirmed that the compound of 4e is suppressed the mechanism of NF-kappa B 2 times more than ZA (FIG. 3)

T2 sequence (P06756 31-889 limits assumed): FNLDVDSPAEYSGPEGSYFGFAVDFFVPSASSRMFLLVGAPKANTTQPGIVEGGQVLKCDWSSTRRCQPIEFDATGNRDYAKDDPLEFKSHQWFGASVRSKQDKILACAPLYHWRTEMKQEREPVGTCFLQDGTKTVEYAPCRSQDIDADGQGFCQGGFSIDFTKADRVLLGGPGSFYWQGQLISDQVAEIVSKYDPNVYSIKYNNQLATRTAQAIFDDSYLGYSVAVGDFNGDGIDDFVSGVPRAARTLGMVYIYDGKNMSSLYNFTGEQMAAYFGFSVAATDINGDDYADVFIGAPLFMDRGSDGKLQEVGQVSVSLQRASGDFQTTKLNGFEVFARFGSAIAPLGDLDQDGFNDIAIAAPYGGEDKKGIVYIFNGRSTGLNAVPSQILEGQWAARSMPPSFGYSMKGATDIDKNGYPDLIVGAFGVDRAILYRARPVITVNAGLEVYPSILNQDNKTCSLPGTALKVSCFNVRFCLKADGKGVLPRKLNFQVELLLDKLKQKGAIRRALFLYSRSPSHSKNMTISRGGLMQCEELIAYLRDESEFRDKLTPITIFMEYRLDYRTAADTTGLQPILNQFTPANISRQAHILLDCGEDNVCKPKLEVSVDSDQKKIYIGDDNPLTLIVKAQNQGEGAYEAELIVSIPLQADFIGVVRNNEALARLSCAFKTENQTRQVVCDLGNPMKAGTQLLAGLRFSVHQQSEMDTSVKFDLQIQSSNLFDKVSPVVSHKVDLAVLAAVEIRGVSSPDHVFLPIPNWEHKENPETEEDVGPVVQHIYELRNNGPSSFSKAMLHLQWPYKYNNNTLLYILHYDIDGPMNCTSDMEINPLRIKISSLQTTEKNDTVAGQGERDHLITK
T2 sequence (P06756 891-1048 partner limits assumed): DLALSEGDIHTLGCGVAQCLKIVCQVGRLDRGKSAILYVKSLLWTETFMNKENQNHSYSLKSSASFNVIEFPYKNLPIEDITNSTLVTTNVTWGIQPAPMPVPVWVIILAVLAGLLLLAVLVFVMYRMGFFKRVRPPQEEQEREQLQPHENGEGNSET
T2 sequence (P05106 27-788): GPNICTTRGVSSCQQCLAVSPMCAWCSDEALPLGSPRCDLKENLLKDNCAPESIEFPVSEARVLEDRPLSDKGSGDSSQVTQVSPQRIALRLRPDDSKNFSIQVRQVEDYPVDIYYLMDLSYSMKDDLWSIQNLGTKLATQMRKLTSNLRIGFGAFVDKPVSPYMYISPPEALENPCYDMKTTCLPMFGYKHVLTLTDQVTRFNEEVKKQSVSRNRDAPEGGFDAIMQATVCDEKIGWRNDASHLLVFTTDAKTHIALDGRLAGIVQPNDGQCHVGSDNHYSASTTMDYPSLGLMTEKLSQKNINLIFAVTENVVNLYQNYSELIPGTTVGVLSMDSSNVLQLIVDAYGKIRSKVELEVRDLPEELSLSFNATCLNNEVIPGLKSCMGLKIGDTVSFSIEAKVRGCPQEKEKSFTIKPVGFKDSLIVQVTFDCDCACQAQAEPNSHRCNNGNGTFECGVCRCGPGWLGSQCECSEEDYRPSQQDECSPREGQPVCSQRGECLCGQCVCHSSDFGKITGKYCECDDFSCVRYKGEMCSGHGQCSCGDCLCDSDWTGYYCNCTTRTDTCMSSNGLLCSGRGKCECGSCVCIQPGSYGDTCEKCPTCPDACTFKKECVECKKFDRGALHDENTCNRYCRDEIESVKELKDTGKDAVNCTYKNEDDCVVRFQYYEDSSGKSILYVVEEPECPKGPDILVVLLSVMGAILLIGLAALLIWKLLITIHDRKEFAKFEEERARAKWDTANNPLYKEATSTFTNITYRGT

On to “OPG: OPG (osteoprotegrin) molecule, RANKL antagonist, used as a positive control [reference compound]”, for which the “binding inhibitory activity upon to RANK receptor” value in series [1] worked out at 83.65%.

In turn, `O=C1C(c2ccccc2)=C(c2ccccc2)C(=O)N1C1CCCCC1` [Compound 4g, 1-cyclohexyl-3,4-diphenyl-1H-pyrrole-2,5-dione] displayed a melting point of 159 to 160 °C. `O=C1C(c2ccccc2)=C(c2ccccc2)C(=O)N1c1cccc(Cl)c1` [Compound 4d, 1-(3-chlorophenyl)-3,4-diphenyl-1H-pyrrole-2,5-dione] returned a melting point of 144 to 145 °C. As for `O=C1C(c2ccccc2)=C(c2ccccc2)C(=O)N1c1ccccc1C(F)(F)F` [Compound 4f, 3,4-diphenyl-1-(2-(trifluoromethyl)phenyl)-1H-pyrrole-2,5-dione], the melting point was in the range of 152 to 153 °C. In the case of `O=C1C(c2ccccc2)=C(c2ccccc2)C(=O)N1c1ccccc1Cl` [Compound 4c, 1-(2-chlorophenyl)-3,4-dipheyl-1H-pyrrole-2,5-dione], the melting point was 213 to 214 °C. Molecule `O=C1C(c2ccccc2)=C(c2ccccc2)C(=O)N1CCc1ccc(F)cc1` [Compound 4t, 1-(4-fluorophenethyl)-3,4-diphenyl-1H-pyrrole-2,5-dione] had a melting point of 153 to 154 °C. Still for that read-out and setting: in the case of `O=C1C(c2ccccc2)=C(c2ccccc2)C(=O)N1Cc1cccc(F)c1` [Compound 4o, 1-(3-fluorobenzyl)-3,4-diphenyl-1H-pyrrole-2,5-dione] it was 107 to 108 °C. Regarding Echistatin [reference compound], the “binding inhibitory rate with integrin molecule (OPN-integrin)” value (“binding inhibitory rate” for short) on human integrin αyβ3 is recorded as 51.75%. Molecule `O=C1C(c2ccccc2)=C(c2ccccc2)C(=O)N1CCc1ccccc1F` [Compound 4r, 1-(2-fluorophenethyl)-3,4-diphenyl-1H-pyrrole-2,5-dione] returned a melting point of 111 to 112 °C.

As to `O=C1C(c2ccccc2)=C(c2ccccc2)C(=O)N1CCc1cccc(F)c1` [Compound 4s, 1-(3-fluorophenethyl)-3,4-diphenyl-1H-pyrrole-2,5-dione], the melting point fell in the range of 129 to 130 °C.

The molecule `O=C1C(c2ccccc2)=C(c2ccccc2)C(=O)N1c1cccc(F)c1` [Compound 4k, 1-(3-fluorophenyl)-3,4-diphenyl-1H-pyrrole-2,5-dione] showed a melting point of 157 to 158 °C. In addition, the “osteoclast differentiation degree (number of cells differentiated to osteoclasts)” value (“osteoclast differentiation degree” below) in the series on RAW 264.7 cell (0.5 μM) amounted to 40. In addition, in the series on RAW 264.7 cell (1 μM), the “osteoclast differentiation degree” value came to 25. Besides, in the series with RAW 264.7 cell (5 μM), the “osteoclast differentiation degree” value worked out at 40. The “osteoclast differentiation degree” value in the series on RAW 264.7 cell (10 μM) came to 28. Regarding `CC(C)c1cccc(C(C)C)c1N1C(=O)C(c2ccccc2)=C(c2ccccc2)C1=O` [Compound 4a, 1-(2,6-diisopropylphenyl)-3,4-diphenyl-1H-pyrrole-2,5-dione], the melting point was 233 to 234 °C. Turning to `O=C1C(c2ccccc2)=C(c2ccccc2)C(=O)N1Cc1ccccc1F` [Compound 4n, 1-(2-fluorobenzyl)-3,4-diphenyl-1H-pyrrole-2,5-dione], the melting point was in the range of 113 to 114 °C.

Regarding `O=P(O)(O)C(O)(Cn1ccnc1)P(=O)(O)O` [ZA, zoledronic acid, reference compound], on human integrin αyβ3, the “binding inhibitory rate” value was 8.65%. In series [1], the “binding inhibitory activity upon to RANK receptor” value worked out at 27.55%. Turning to `O=C(O)c1cc(N2C(=O)C(c3ccccc3)=C(c3ccccc3)C2=O)ccc1O` [Compound 4i, 5-(2,5-dioxo-3,4-diphenyl-2,5-dihydro-1H-pyrrol-1-yl)-2-hydroxybenzoic acid], the melting point was 249 to 250 °C. Regarding `O=C1C(c2ccccc2)=C(c2ccccc2)C(=O)N1c1ccc(Cl)cc1` [Compound 4e, 1-(4-chlorophenyl)-3,4-diphenyl-1H-pyrrole-2,5-dione], at human integrin αyβ3, the “OPN-integrin binding inhibitory activity relative to ZA” value is on record as “about 3 times” and the “binding inhibitory rate” value is 26.45%. Moreover, in the series with NF-kappa B, the “suppression of the mechanism of NF-kappa B relative to ZA” value is reported as 2 times. The “inhibition effect on osteoclast differentiation (in words)” value with RAW 264.7 cell is recorded as “more superior inhibition effect on osteoclast differentiation than the control group of zoledronic acid”. Moreover, in series [1], the “binding inhibitory activity upon to RANK receptor” value was 46.70% and the “binding inhibitory activity upon to RANK receptor relative to ZA” value is reported as “about 1.7 times”.
